Data: patent US10487093B2, “Heterocyclic compounds, in particular 2-oxo-4,4,5,5,6,6,7,7-octahydrobenzoxazole derivatives, and their use as antibacterial compounds” (priority 2016, dated 2019)
Values after ≈ are worked out from the molar mass of the structure shown.

Experiments:
[1] = test system: human hepatic cell line (HepG2 ATCC HB-8065); test: Human cell viability assay (CellTiter-Glo); conditions: Homo sapiens, HepG2, 24 h, read-out: IC50 (μg/mL) HepG2
[2] = test system: Acinetobacter baumannii ATCC 19606; test: MIC, broth microdilution (CLSI) versus planktonic bacteria; format: cell-based; conditions: ATCC19606; Acinetobacter baumannii ATCC 19606; 16-20 h; mode of three independent experiments; read-out: MIC, Ab ATCC 19606
[3] = test system: Enterococcus faecalis ATCC 29212; test: as above; format: cell-based; conditions: ATCC29212, 16-20 h, mode of three independent experiments, read-out: MIC, Ef ATCC 29212
[4] = test system: Enterobacter cloacae NCTC 13406; test: as above; format: cell-based; conditions: NCTC13406; Enterobacter cloacae NCTC 13406; 16-20 h; mode of three independent experiments; read-out: MIC, Ecl NCTC 13406
[5] = test system: Staphylococcus aureus ATCC 29213; test: as above; format: cell-based; conditions: ATCC29213; Staphylococcus aureus ATCC 29213; 16-20 h; mode of three independent experiments; read-out: MIC, Sa ATCC 29213
[6] = test system: Haemophilus influenzae ATCC 49247; test: as above; format: cell-based; conditions: ATCC49247; Haemophilus influenzae ATCC 49247; 16-20 h; mode of three independent experiments; read-out: MIC, Hi ATCC 49247
[7] = test system: Pseudomonas aeruginosa ATCC 27853; test: as above; format: cell-based; conditions: ATCC27853; Pseudomonas aeruginosa ATCC 27853; 16-20 h; mode of three independent experiments; read-out: MIC, Pa ATCC 27853
[8] = test system: Acinetobacter baumannii NCTC 13420; test: as above; format: cell-based; conditions: NCTC13420; Acinetobacter baumannii NCTC 13420; 16-20 h; mode of three independent experiments; read-out: MIC, Ab NCTC 13420
[9] = test system: Escherichia coli ATCC 25922; test: as above; format: cell-based; conditions: ATCC25922; Escherichia coli ATCC 25922; 16-20 h; mode of three independent experiments; read-out: MIC, Ec ATCC 25922
E. coli ATCC BAA-2452 = test: as above; format: cell-based; conditions: Escherichia coli ATCC BAA-2452; 16-20 h; mode of three independent experiments; read-out: MIC, Ec ATCC BAA 2452
E. coli MG1655 = test: as above; format: cell-based, Escherichia coli; conditions: Escherichia coli, MG1655, read-out: MIC, Ec MG1655 WT
[10] = test system: Streptococcus pneumoniae ATCC 49619; test: as above; format: cell-based; conditions: ATCC49619; Streptococcus pneumoniae ATCC 49619; 16-20 h; mode of three independent experiments; read-out: MIC, Sp ATCC 49619
E. coli MG1655 S83L = format: cell-based, Escherichia coli; conditions: compared to the isogenic parent strain E. coli MG1655; S83L mutation on DNA gyrase subunit GyrA
E. coli MG1655 D87G = format: cell-based, Escherichia coli; conditions: compared to the isogenic parent strain E. coli MG1655; D87G mutation on DNA gyrase subunit GyrA
E. coli NCTC 13476 = test: MIC, broth microdilution (CLSI) versus planktonic bacteria; format: cell-based; conditions: NCTC13476; Escherichia coli NCTC 13476; 16-20 h; mode of three independent experiments; read-out: MIC, Ec NCTC 13476

Row | Compound | IC50 [1] | MIC [2] | MIC [3] | MIC [4] | MIC [5] | MIC [6] | MIC [7] | MIC [8] | MIC [9] | MIC (E. coli ATCC BAA-2452) | MIC (E. coli MG1655) | MIC [10] | Fold increase in MIC, E. coli MG1655 S83L (E. coli MG1655 S83L) | Fold increase in MIC, E. coli MG1655 D87G (E. coli MG1655 D87G) | MIC (E. coli NCTC 13476)
1 | NCCCOc1ccc2ccc(=O)n(CCN[C@@H]3CC[C@@H]4[C@@H](C3)OC(=O)N4c3ccc4c(n3)NC(=O)CO4)c2c1 [Compound 3, 1-(2-{[(3aR,6R,7aR)-2-oxo-3-{3-oxo-2H,3H,4H-pyrido[3,2-b][1,4]oxazin-6-yl}-octahydro-1,3-benzoxazol-6-yl]amino}ethyl)-7-(3-aminopropoxy)-1,2-dihydroquinolin-2-one] | > 100 µg/mL | > 100 µg/mL | < 1 µg/mL | 10 to 100 µg/mL (≈ 18.2 to 182 µM) | < 1 µg/mL | 10 to 100 µg/mL (≈ 18.2 to 182 µM) | 1 to 10 µg/mL (≈ 1.82 to 18.2 µM) | 10 to 100 µg/mL (≈ 18.2 to 182 µM) | 1 to 10 µg/mL (≈ 1.82 to 18.2 µM) |  |  |  |  |  | 
2 | N#Cc1ccc2ccc(=O)n(CCCN[C@H]3CC[C@H]4[C@H](C3)OC(=O)N4c3ccc4c(n3)NC(=O)CO4)c2c1 [Compound 60, 1-(3-{[(3aS,6S,7aS)-2-oxo-3-{3-oxo-2H,3H,4H-pyrido[3,2-b][1,4]oxazin-6-yl}-octahydro-1,3-benzoxazol-6-yl]amino}propyl)-2-oxo-1,2-dihydroquinoline-7-carbonitrile] | 10 to 100 µg/mL (≈ 19.4 to 194 µM) | < 1 µg/mL | < 1 µg/mL | < 1 µg/mL | < 1 µg/mL | < 1 µg/mL | < 1 µg/mL | < 1 µg/mL | < 1 µg/mL | < 1 µg/mL | < 1 µg/mL | < 1 µg/mL | 4 fold | 2 fold | < 1 µg/mL
3 | COc1cnc2ccc(=O)n(CCN[C@H]3CC[C@H]4[C@H](C3)OC(=O)N4c3ccc4c(n3)NC(=O)CO4)c2n1 [Compound 63, (3aS,6S,7aS)-6-[(2-{3-methoxy-6-oxo-5H,6H-pyrido[2,3-b]pyrazin-5-yl}ethyl)amino]-3-{3-oxo-2H,3H,4H-pyrido[3,2-b][1,4]oxazin-6-yl}-octahydro-1,3-benzoxazol-2-one] | > 100 µg/mL | < 1 µg/mL | < 1 µg/mL | < 1 µg/mL | < 1 µg/mL | < 1 µg/mL | < 1 µg/mL | < 1 µg/mL | < 1 µg/mL | < 1 µg/mL | < 1 µg/mL | < 1 µg/mL | 1 fold | 1 fold | < 1 µg/mL
4 | COc1ccc2ccc(=O)n(CCCN[C@H]3CC[C@H]4[C@H](C3)OC(=O)N4c3ccc4c(n3)NC(=O)CS4)c2n1 [Compound 85, 1-(3-{[(3aS,6S,7aS)-2-oxo-3-{3-oxo-2H,3H,4H-pyrido[3,2-b][1,4]thiazin-6-yl}-octahydro-1,3-benzoxazol-6-yl]amino}propyl)-7-methoxy-1,2-dihydro-1,8-naphthyridin-2-one] | 10 to 100 µg/mL (≈ 18.6 to 186 µM) | < 1 µg/mL |  | < 1 µg/mL | < 1 µg/mL | < 1 µg/mL | 1 to 10 µg/mL (≈ 1.86 to 18.6 µM) | < 1 µg/mL | < 1 µg/mL | < 1 µg/mL | < 1 µg/mL | < 1 µg/mL | 1 fold | 1 fold | < 1 µg/mL
5 | O=C1COc2ccc(N3C(=O)O[C@@H]4C[C@H](NCCCn5c(=O)cnc6cc(F)c(F)cc65)CC[C@H]43)nc2N1 [Compound 88, 1-(3-{[(3aR,6R,7aR)-2-oxo-3-{3-oxo-2H,3H,4H-pyrido[3,2-b][1,4]oxazin-6-yl}-octahydro-1,3-benzoxazol-6-yl]amino}propyl)-6,7-difluoro-1,2-dihydroquinoxalin-2-one] | 10 to 100 µg/mL (≈ 19 to 190 µM) | < 1 µg/mL |  | < 1 µg/mL | < 1 µg/mL | < 1 µg/mL | 1 to 10 µg/mL (≈ 1.9 to 19 µM) | < 1 µg/mL | < 1 µg/mL | < 1 µg/mL | < 1 µg/mL | < 1 µg/mL | 2 fold | 1 fold | < 1 µg/mL
6 | O=C1COc2ccc(N3C(=O)O[C@H]4C[C@@H](NCCCn5c(=O)cnc6cc(F)c(F)cc65)CC[C@@H]43)nc2N1 [Compound 90, 1-(3-{[(3aS,6S,7aS)-2-oxo-3-{3-oxo-2H,3H,4H-pyrido[3,2-b][1,4]oxazin-6-yl}-octahydro-1,3-benzoxazol-6-yl]amino}propyl)-6,7-difluoro-1,2-dihydroquinoxalin-2-one] | 10 to 100 µg/mL (≈ 19 to 190 µM) | < 1 µg/mL |  | < 1 µg/mL | < 1 µg/mL | < 1 µg/mL | 1 to 10 µg/mL (≈ 1.9 to 19 µM) | < 1 µg/mL | < 1 µg/mL | < 1 µg/mL | < 1 µg/mL | < 1 µg/mL | 2 fold | 4 fold | < 1 µg/mL
7 | O=C1COc2ccc(N3C(=O)O[C@H]4C[C@@H](NCCCn5c(=O)cnc6ccc(F)cc65)CC[C@@H]43)nc2N1 [Compound 92, 1-(3-{[(3aS,6S,7aS)-2-oxo-3-{3-oxo-2H,3H,4H-pyrido[3,2-b][1,4]oxazin-6-yl}-octahydro-1,3-benzoxazol-6-yl]amino}propyl)-7-fluoro-1,2-dihydroquinoxalin-2-one] | > 100 µg/mL | < 1 µg/mL |  | < 1 µg/mL | < 1 µg/mL | < 1 µg/mL | < 1 µg/mL | < 1 µg/mL | < 1 µg/mL | < 1 µg/mL | < 1 µg/mL | < 1 µg/mL | 1 fold | 1 fold | < 1 µg/mL
8 | O=C1COc2ccc(N3C(=O)O[C@H]4C[C@@H](NCCCn5c(=O)ccc6ncc(OC(F)F)cc65)CC[C@@H]43)nc2N1 [Compound 93, 1-(3-{[(3aS,6S,7aS)-2-oxo-3-{3-oxo-2H,3H,4H-pyrido[3,2-b][1,4]oxazin-6-yl}-octahydro-1,3-benzoxazol-6-yl]amino}propyl)-7-(difluoromethoxy)-1,2-dihydro-1,5-naphthyridin-2-one] | > 100 µg/mL | < 1 µg/mL |  | 1 to 10 µg/mL (≈ 1.8 to 18 µM) | < 1 µg/mL | < 1 µg/mL | < 1 µg/mL | < 1 µg/mL | < 1 µg/mL | < 1 µg/mL | < 1 µg/mL | < 1 µg/mL | 1 fold | 1 fold | < 1 µg/mL
9 | COc1cnc2ccc(=O)n(CCCN[C@H]3CC[C@H]4[C@H](C3)OC(=O)N4c3ccc4c(n3)NC(=O)CO4)c2c1 [Compound 99, 1-(3-{[(3aS,6S,7aS)-2-oxo-3-{3-oxo-2H,3H,4H-pyrido[3,2-b][1,4]oxazin-6-yl}-octahydro-1,3-benzoxazol-6-yl]amino}propyl)-7-methoxy-1,2-dihydro-1,5-naphthyridin-2-one] | 10 to 100 µg/mL (≈ 19.2 to 192 µM) | 1 to 10 µg/mL (≈ 1.92 to 19.2 µM) |  | 1 to 10 µg/mL (≈ 1.92 to 19.2 µM) | < 1 µg/mL | < 1 µg/mL | 1 to 10 µg/mL (≈ 1.92 to 19.2 µM) | < 1 µg/mL | < 1 µg/mL | < 1 µg/mL | < 1 µg/mL | < 1 µg/mL | 0.5 fold | 1 fold | < 1 µg/mL
10 | O=C1COc2ccc(N3C(=O)O[C@H]4C[C@@H](NCCn5c(=O)ccc6nccnc65)CC[C@@H]43)nc2N1 [Compound 100, (3aS,6S,7aS)-3-{3-oxo-2H,3H,4H-pyrido[3,2-b][1,4]oxazin-6-yl}-6-[(2-{6-oxo-5H,6H-pyrido[2,3-b]pyrazin-5-yl}ethyl)amino]-octahydro-1,3-benzoxazol-2-one] | > 100 µg/mL | 1 to 10 µg/mL (≈ 2.09 to 20.9 µM) |  | 1 to 10 µg/mL (≈ 2.09 to 20.9 µM) | < 1 µg/mL | < 1 µg/mL | 10 to 100 µg/mL (≈ 20.9 to 209 µM) | < 1 µg/mL | < 1 µg/mL | 1 to 10 µg/mL (≈ 2.09 to 20.9 µM) | < 1 µg/mL | < 1 µg/mL | 1 fold | 1 fold | 1 to 10 µg/mL (≈ 2.09 to 20.9 µM)
